Measured values from US11186583B2, “5-alkylthio-7-[(4-arylbenzyl)amino]-1(2)H-pyrazolo[4,3-d]pyrimidines for treatment of lymphoma” (UNIVERZITA PALACKEHO V OLOMOUCI, priority 2018, dated 2021).

What was measured:
Assay type in all cases: cell-based
[1] = tested on: OCI-LY2 (diffuse large B-cell lymphoma, subtype—germinal center B-cell); assay: MTT cytotoxicity assay, OCI-LY2 lymphoma cell line; settings: 72 h, OCI-LY2 cells, three days, read-out: Lymphoma cell lines GI50, OCI-LY2
Excerpt: (§1) Cytotoxicity of the compounds is the major property determining their anti-lymphoma efficacy in vitro. One of the parameters used, as the basis for cytotoxicity assays, is the metabolic activity of viable cells. For example 2, a microtiter assay, which uses (3-(4,5-dimethylthiazol-2-yl)-2,5-diphenyltetrazolium bromide (MTT), is widely used to quantitate cell proliferation and cytotoxicity. This assay is widely used in drug screening programs and in chemosensitivity testing. Because only metabolically active living cells reduce MTT to correspond purple formazan dye, these assays detect viable cells exclusively. The quantity of reduced MTT corresponds to the number of vital cells in the culture.
(§2) The compounds were assayed using the following lymphoma cell lines: HT (diffuse large B-cell lymphoma, subtype—germinal center B-cell), OCI-LY2 (diffuse large B-cell lymphoma, subtype—germinal center B-cell), MINO (mantle cell lymphoma). All cell lines were grown in RPMI medium supplemented with fetal bovine serum and glutamine and maintained at 37° C. in a humidified atmosphere with 5% CO2. For cytotoxicity assays, 5000-10000 cells were seeded into each well of 96 well plate, allowed to stabilize for at least 8 h and then tested compounds were added at various concentrations ranging from 100 to 0.01 μM in triplicates. After three days, MTT solution (5 mg/ml; Sigma, St. Louis, USA) was added to cells and medium was replaced with DMSO after five hours. The absorbance was measured at 620 nm by employing a microplate reader. MTT assays were repeated 3 times for each drug application and untreated cells were used as reference. The GI50 values, drug concentrations lethal to 50% of the cells, were calculated from the obtained dose response curves.

[2] = tested on: HT (diffuse large B-cell lymphoma, subtype—germinal center B-cell); assay: MTT cytotoxicity assay, HT lymphoma cell line; settings: Homo sapiens, 72 h, HT cells, three days, read-out: Lymphoma cell lines GI50, HT
Excerpt: as §1, §2

[3] = tested on: MINO (mantle cell lymphoma); assay: MTT cytotoxicity assay, MINO lymphoma cell line; settings: Homo sapiens, 72 h, MINO cells, three days, read-out: Lymphoma cell lines GI50, MINO
Excerpt: as §1, §2

Row | Compound | GI50 [1] [nM] | GI50 [2] [nM] | GI50 [3] [nM]
1 | CC(C)c1n[nH]c2c(NCc3ccc(-c4ccccn4)cc3)nc(SCC(O)CN)nc12 (racemic) [Compound 4.23, 5-(R/S)-(3-Amino-2-hydroxy-1-propyl)thio-3-isopropyl-7-[4-(2-pyridyl)benzyl]amino-1(2)H-pyrazolo[4,3-d]pyrimidine] | 55 | 55 | 64
2 | CC(C)c1n[nH]c2c(NCc3ccc(-c4ccccn4)cc3)nc(SCCO)nc12 [Compound 4.1, 5-(2-Hydroxy-1-ethyl)thio-3-isopropyl-7-[4-(2-pyridyl)benzyl]amino-1(2)H-pyrazolo[4,3-d]pyrimidine] | 50 | 48 | 40
3 | C=CCSc1nc(NCc2ccc(-c3ccccn3)cc2)c2[nH]nc(C(C)C)c2n1 [Compound 4.2, 5-(Prop-2-en-1-yl)thio-3-isopropyl-7-[4-(2-pyridyl)benzyl]amino-1(2)H-pyrazolo[4,3-d]pyrimidine] | 858 | 1000 | 923
4 | CC(O)CSc1nc(NCc2ccc(-c3ccccn3)cc2)c2[nH]nc(C(C)C)c2n1 (stereo not drawn) [Compound 4.3, 5-(2-Hydroxy-1-propyl)thio-3-isopropyl-7-[4-(2-pyridyl)benzyl]amino-1(2)H-pyrazolo[4,3-d]pyrimidine] | 152 | 62 | 81
5 | CCC(CO)Sc1nc(NCc2ccc(-c3ccccn3)cc2)c2[nH]nc(C(C)C)c2n1 (stereo not drawn) [Compound 4.5, 5-(1-Hydroxy-2-butyl)thio-3-isopropyl-7-[4-(2-pyridyl)benzyl]amino-1(2)H-pyrazolo[4,3-d]pyrimidin] | 181 | 255 | 119
6 | CC(C)c1n[nH]c2c(NCc3ccc(-c4ccccn4)cc3)nc(SCCC(N)=O)nc12 [Compound 4.6, 5-(2-Carbamoyl-1-ethyl)thio-3-isopropyl-7-[4-(2-pyridyl)benzyl]amino-1(2)H-pyrazolo[4,3-d]pyrimidine] | 84 | 120 | 81
7 | CC(C)c1n[nH]c2c(NCc3ccc(-c4ccccn4)cc3)nc(SCC(N)=O)nc12 [Compound 4.7, 5-(Carbamoylmethyl)thio-3-isopropyl-7-[4-(2-pyridyl)benzyl]amino-1(2)H-pyrazolo[4,3-d]pyrimidine] | 163 | 192 | 197
8 | CC(C)c1n[nH]c2c(NCc3ccc(-c4ccccn4)cc3)nc(SCCCO)nc12 [Compound 4.8, 5-(3-Hydroxy-1-propyl)thio-3-isopropyl-7-[4-(2-pyridyl)benzyl]amino-1(2)H-pyrazolo[4,3-d]pyrimidine] | 102 | 109 | 89
9 | CC(C)c1n[nH]c2c(NCc3ccc(-c4ccccn4)cc3)nc(SCCNC(=N)N)nc12 [Compound 4.10, 5-(2-Guanidino-1-ethyl)thio-3-isopropyl-7-[4-(2-pyridyl)benzyl]amino-1(2)H-pyrazolo[4,3-d]pyrimidine] | 812 | 390 | 390
10 | CC(C)c1n[nH]c2c(NCc3ccc(-c4ccccn4)cc3)nc(SCCNC(N)=O)nc12 [Compound 4.11, 5-(2-Ureido-1-ethyl)thio-3-isopropyl-7-[4-(2-pyridyl)benzyl]amino-1(2)H-pyrazolo[4,3-d]pyrimidine] | 198 | 240 | 136
11 | CC(=O)NCCSc1nc(NCc2ccc(-c3ccccn3)cc2)c2[nH]nc(C(C)C)c2n1 [Compound 4.12, 5-(2-Acetylamino-1-ethyl)thio-3-isopropyl-7-[4-(2-pyridyl)benzyl]amino-1(2)H-pyrazolo[4,3-d]pyrimidine] | 54 | 71 | 42
12 | CC(C)c1n[nH]c2c(NCc3ccc(-c4ccccn4)cc3)nc(SCC(C)(C)N)nc12 [Compound 4.13, 5-(2-Amino-2-methyl-1-propyl)thio-3-isopropyl-7-[4-(2-pyridyl)benzyl]amino-1(2)H-pyrazolo[4,3-d]pyrimidin] | 100 | 85 | 64
13 | CC(C)c1n[nH]c2c(NCc3ccc(-c4ccccn4)cc3)nc(SC3CCCCC3O)nc12 (stereo not drawn) [Compound 4.14, 5-(2-Hydroxycyclohexyl1-yl)thio-3-isopropyl-7-[4-(2-pyridyl)benzyl]amino-1(2)H-pyrazolo[4,3-d]pyrimidine] | 680 | 636 | 530
14 | CCC(O)CSc1nc(NCc2ccc(-c3ccccn3)cc2)c2[nH]nc(C(C)C)c2n1 (stereo not drawn) [Compound 4.15, 5-(2-Hydroxy-1-butyl)thio-3-isopropyl-7-[4-(2-pyridyl)benzyl]amino-1(2)H-pyrazolo[4,3-d]pyrimidine] | 280 | 273 | 427
15 | CC(C)c1n[nH]c2c(NCc3ccc(-c4ccccn4)cc3)nc(SC3CCCC3O)nc12 (stereo not drawn) [Compound 4.16, 5-(2-Hydroxycyclopentyl)thio-3-isopropyl-7-[4-(2-pyridyl)benzyl]amino-1(2)H-pyrazolo[4,3-d]pyrimidine] | 373 | 567 | 450
16 | CC(C)c1n[nH]c2c(NCc3ccc(-c4ccccn4)cc3)nc(SCC(C)(C)O)nc12 [Compound 4.17, 5-(2-Hydroxy-2-methyl-1-propyl)thio-3-isopropyl-7-[4-(2-pyridyl)benzyl]amino-1(2)H-pyrazolo[4,3-d]pyrimidine] | 610 | 507 | 477
17 | CC(C)c1n[nH]c2c(NCc3ccc(-c4ccccn4)cc3)nc(SCC(O)CO)nc12 (stereo not drawn) [Compound 4.18, 5-(2,3-Dihydroxy-1-propyl)thio-3-isopropyl-7-[4-(2-pyridyl)benzyl]amino-1(2)H-pyrazolo[4,3-d]pyrimidine] | 22 | 21 | 10
18 | CC(C)c1n[nH]c2c(NCc3ccc(-c4ccccn4)cc3)nc(SCCN(C)C)nc12 [Compound 4.19] | 61 | 54 | 93
19 | CC(C)c1n[nH]c2c(NCc3ccc(-c4ccccn4)cc3)nc(SCCCN(C)C)nc12 [Compound 4.20, 5[3-(Dimethylamino)-1-propyl]thio-3-isopropyl-7-[4-(2-pyridyl)benzyl]amino-1(2)H-pyrazolo[4,3-d]pyrimidine] | 109 | 105 | 76
20 | CC(C)c1n[nH]c2c(NCc3ccc(-c4ccccn4)cc3)nc(SC(CO)C(C)C)nc12 (stereo not drawn) [Compound 4.21, 5-(1-Hydroxy-3-methyl-2-butyl)thio-3-isopropyl-7-[4-(2-pyridyl)benzyl]amino-1(2)H-pyrazolo[4,3-d]pyrimidine] | 1000 | 980 | 1310
21 | CC(C)c1n[nH]c2c(NCc3ccc(-c4ccccn4)cc3)nc(SCC(O)CN3CCOCC3)nc12 (stereo not drawn) [Compound 4.24] | 200 | 200 | 243
22 | CC(C)c1n[nH]c2c(NCc3ccc(-c4ccccn4)cc3)nc(SCC(O)CN3CCNCC3)nc12 (stereo not drawn) [Compound 4.25, 5-[3-(1-Piperazinyl)-2-hydroxy-1-propyl]thio-3-isopropyl-7-[4-(2-pyridyl)benzyl]amino-1(2)H-pyrazolo[4,3-d]pyrimidine] | 435 | 332 | 767
23 | CC(C)c1n[nH]c2c(NCc3ccc(-c4ccccn4)cc3)nc(SCCn3ccnc3)nc12 [Compound 4.26, 5-[2-(1-Imidazolyl)-1-ethyl]thio-3-isopropyl-7-[4-(2-pyridyl)benzyl]amino-1(2)H-pyrazolo[4,3-d]pyrimidine] | 145 | 155 | 135
24 | CC(C)c1n[nH]c2c(NCc3ccc(-c4ccccn4)cc3)nc(SCCCN)nc12 [Compound 4.27, 5-(3-Amino-1-propyl)thio-3-isopropyl-7-[4-(2-pyridyl)benzyl]amino-1(2)H-pyrazolo[4,3-d]pyrimidine] | 151 | 120 | 156
25 | CC(C)c1n[nH]c2c(NCc3ccc(-c4ccccn4)cc3)nc(SCC3CNC(=O)O3)nc12 (stereo not drawn) [Compound 4.28, 5-[(Oxazolidin-2-on-5-yl)methyl]thio-3-isopropyl-7-[4-(2-pyridyl)benzyl]amino-1(2)H-pyrazolo[4,3-d]pyrimidine] | 53 | 80 | 69
26 | CC(C)c1n[nH]c2c(NCc3ccc(-c4ccccn4)cc3)nc(SCC(N)CN)nc12 (stereo not drawn) [Compound 4.29, 5-(2,3-Diamino-1-propyl)thio-3-isopropyl-7-[4-(2-pyridyl)benzyl]amino-1(2)H-pyrazolo[4,3-d]pyrimidine] | 780 | 480 | 770
27 | CSCCSc1nc(NCc2ccc(-c3ccccn3)cc2)c2[nH]nc(C(C)C)c2n1 [Compound 4.30, 5-(2-Methylthio-1-ethyl)thio-3-isopropyl-7-[4-(2-pyridyl)benzyl]amino-1(2)H-pyrazolo[4,3-d]pyrimidine] | 668 | 975 | 773
